Measured values reported in ChEMBL document CHEMBL1201862, “PubChem BioAssay data set” (2004).
Calls of active or inactive are those of the source.

Assays:
[1] = target: Mitogen-activated protein kinase 10 (Homo sapiens, UniProt P53779); experiment: Dose response biochemical screening assay for inhibitors of c-Jun N-Terminal Kinase 3 (JNK3). [Related pubchem assays: 746 ]
[2] = Luminescent dose response cell-based high throughput screening assay for inhibitors of the Janus kinase 2 mutant JAK2V617F. [Related pubchem assays: 1446 (Primary screen.), 1521 (Confirmation assay.), 1486 (Counter screen.)]; type: functional
Vero [3] = experiment: inhibition of WNV-induced cytopathic effect – cell-based, CPE readout (AID 1621); type: functional; conditions: Chlorocebus sabaeus
H4 = experiment: Luminescence Cell-Based Dose Response HTS to Identify Activators of 5'UTR Stem-Loop Driven Prion Protein mRNA Translation in H4 Neuroglioblastoma Cells. [Related pubchem assays: 1829 (Project Summary), 1814 (Primary HTS)]; type: functional; conditions: Homo sapiens
[4] = Luminescence Cell-Based Dose Response HTS to Identify Activators of Luciferase Translation or Activity in H4 […] Cells. [Related pubchem assays: 1829 (Project Summary), 1814 (Primary HTS)]; type: functional
[5] = target: T1, Microphthalmia-associated transcription factor (Homo sapiens, UniProt O75030); experiment: reducers of TRPM1 reporter luminescence, concentration series – cell-based, SK-MEL-5, cherry-picked, set 3, MITF inhibitor project, dose response (AID 493073); type: functional;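 also: SK-MEL-5 melanoma cells with luciferase driven by the MITF target TRPM1 promoter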
T1 sequence (O75030 whole entry): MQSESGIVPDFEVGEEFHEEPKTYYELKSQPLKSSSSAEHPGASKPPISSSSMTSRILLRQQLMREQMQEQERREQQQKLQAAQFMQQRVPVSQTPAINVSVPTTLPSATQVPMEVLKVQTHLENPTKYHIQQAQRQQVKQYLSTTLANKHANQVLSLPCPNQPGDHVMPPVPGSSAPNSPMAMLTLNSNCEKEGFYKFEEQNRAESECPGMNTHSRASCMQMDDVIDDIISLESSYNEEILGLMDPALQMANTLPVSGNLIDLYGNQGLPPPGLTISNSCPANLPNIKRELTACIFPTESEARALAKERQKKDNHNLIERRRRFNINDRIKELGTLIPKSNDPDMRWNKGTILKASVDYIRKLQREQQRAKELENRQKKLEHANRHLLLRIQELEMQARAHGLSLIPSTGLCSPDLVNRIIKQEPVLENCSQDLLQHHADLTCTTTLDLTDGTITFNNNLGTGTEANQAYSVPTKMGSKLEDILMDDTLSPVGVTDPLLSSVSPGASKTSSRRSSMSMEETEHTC

[6] = Luminescence Cell-Based Dose Confirmation HTS to Identify Activators of 5'UTR Stem-Loop Driven Alpha-Synuclein mRNA Translation in H4 Neuroglioblastoma Cells. [Related pubchem assays: 1829 (Project Summary), 1814 (Primary HTS)]; type: functional
[7] = target: T2, Ubiquitin-conjugating enzyme E2 N (Homo sapiens, UniProt P61088); type: functional;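 also: Dose-response confirmation in a TR-FRET assay detecting UBC13-driven polyubiquitin chain formation, inhibition measured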
T2 sequence (P61088 whole entry): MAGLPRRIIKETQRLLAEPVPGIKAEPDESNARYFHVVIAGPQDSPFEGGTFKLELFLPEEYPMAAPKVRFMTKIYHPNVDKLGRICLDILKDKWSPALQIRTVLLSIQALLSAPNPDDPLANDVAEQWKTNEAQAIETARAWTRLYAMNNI

Vero [8] = experiment: mammalian cell viability reduction – secondary assay, cytotoxicity control for West Nile virus antiviral project, dose response (AID 1650); type: functional; conditions: Chlorocebus sabaeus
[9] = viability loss in human Jurkat cells – cell-based, luminescence, cytotoxicity control for P. falciparum gametocyte viability project, dose response (AID 1117277); type: functional;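 also: potency reflects loss of cellular ATP meaning fewer viable cells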
[10] = viability inhibitors of stage V gametocytes – luminescence, dose response (AID 1117278); type: functional, cell-based;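 also: gametocytes exposed to compound for 24 hours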
Protein Tat = Protein Tat (Human immunodeficiency virus type 1 group M subtype B (isolate HXB2)(HIV-1), UniProt P04608); type: functional;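 also: tat binding to TAR RNA read out by fluorescence polarization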
Protein Tat, sequence (P04608 whole entry): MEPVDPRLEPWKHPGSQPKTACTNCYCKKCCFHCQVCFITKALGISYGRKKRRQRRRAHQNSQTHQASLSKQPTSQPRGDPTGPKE

[11] = target: Neurotensin receptor type 1 (Homo sapiens, UniProt P30989); type: functional;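 also: Image-based confirmatory dose-response assay measuring agonist activity at NTR1; NTR1-expressing U2OS osteosarcoma cells imaged for beta-arrestin GFP spot formation; agonist potency where compounds increase beta-arrestin recruitment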
Neurotensin receptor type 1, sequence (P30989 whole entry): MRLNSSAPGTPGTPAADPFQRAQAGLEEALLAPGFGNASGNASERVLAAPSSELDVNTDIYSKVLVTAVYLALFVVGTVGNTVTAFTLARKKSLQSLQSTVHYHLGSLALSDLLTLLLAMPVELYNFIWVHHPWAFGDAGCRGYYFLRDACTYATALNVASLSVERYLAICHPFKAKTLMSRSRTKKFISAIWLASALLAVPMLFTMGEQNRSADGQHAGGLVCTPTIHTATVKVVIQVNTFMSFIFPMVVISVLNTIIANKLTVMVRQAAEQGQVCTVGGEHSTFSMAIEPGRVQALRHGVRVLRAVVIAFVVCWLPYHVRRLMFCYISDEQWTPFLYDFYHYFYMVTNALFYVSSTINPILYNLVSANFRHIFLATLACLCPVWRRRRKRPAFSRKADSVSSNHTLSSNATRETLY

BJ [12] = experiment: BJ-TERT fibroblast viability loss – cell-based, RAS-independent, luminescence, dose response (AID 1933); type: functional, Homo sapiens; conditions: Homo sapiens, BJ
[13] = DRD fibroblast viability loss – cell-based, non-viral oncogenic, luminescence, dose response (AID 1934); type: functional; conditions: Homo sapiens
[14] = viability loss in THP-1 monocytes – THP-1 cells, cytotoxicity control for Vif-APOBEC3G degradation inhibitor project, dose response (AID 1117359); type: functional; conditions: THP-1
BJ [15] = experiment: BJ-TERT-LT-ST fibroblast viability loss – cell-based, RAS-independent, luminescence, dose response (AID 1935); type: functional, Homo sapiens; conditions: Homo sapiens, BJ;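 also: BJ fibroblasts immortalized with TERT plus LT and ST oncogenes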
Large T antigen = Large T antigen (Simian virus 40, UniProt P03070); type: functional, Betapolyomavirus macacae;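 also: Confirmatory-stage PubChem screen for compounds that inhibit SV40 T antigen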
Large T antigen, sequence (P03070 whole entry): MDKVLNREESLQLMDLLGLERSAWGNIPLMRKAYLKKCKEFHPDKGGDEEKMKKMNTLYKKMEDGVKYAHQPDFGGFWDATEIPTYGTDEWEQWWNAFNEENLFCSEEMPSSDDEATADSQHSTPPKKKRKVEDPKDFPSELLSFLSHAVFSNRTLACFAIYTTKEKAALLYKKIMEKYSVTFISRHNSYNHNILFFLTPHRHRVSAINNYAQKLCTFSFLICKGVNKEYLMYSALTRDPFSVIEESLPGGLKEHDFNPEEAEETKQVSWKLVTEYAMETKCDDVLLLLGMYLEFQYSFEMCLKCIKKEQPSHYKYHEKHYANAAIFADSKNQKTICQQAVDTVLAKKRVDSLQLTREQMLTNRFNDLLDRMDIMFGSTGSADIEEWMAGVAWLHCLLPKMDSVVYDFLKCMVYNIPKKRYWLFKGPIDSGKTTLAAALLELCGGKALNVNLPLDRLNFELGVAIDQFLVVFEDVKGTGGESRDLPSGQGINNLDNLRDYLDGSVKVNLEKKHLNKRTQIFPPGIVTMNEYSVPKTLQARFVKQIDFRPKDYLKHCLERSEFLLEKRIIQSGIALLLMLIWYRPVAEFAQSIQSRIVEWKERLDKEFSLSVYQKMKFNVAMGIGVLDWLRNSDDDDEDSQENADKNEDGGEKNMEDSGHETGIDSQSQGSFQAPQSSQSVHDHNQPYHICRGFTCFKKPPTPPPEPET

BJ [16] = experiment: cells; type: functional, cell-based, Homo sapiens; conditions: Homo sapiens, BJ
[17] = Luminescence Cell-Based Dose Confirmation to Identify Activators of 5'UTR Stem-Loop Driven Alpha-Synuclein mRNA Translation in H4 Neuroglioblastoma Cells. [Related pubchem assays: 1829 (Project Summary), 1814 (Primary HTS)]; type: functional
[18] = Luminescence Cell-Based Dose Response to Identify Activators of Luciferase Translation or Activity in H4-C Neuroglioblastoma Cells. [Related pubchem assays: 1829 (Project Summary), 1814 (Primary HTS)]; type: functional
[19] = Luminescence Cell-Based Dose Response to Identify Activators of 5'UTR Stem-Loop Driven Prion Protein mRNA Translation in H4-C Neuroglioblastoma Cells. [Related pubchem assays: 1829 (Project Summary), 1814 (Primary HTS)]; type: functional
Genome polyprotein = Genome polyprotein (dengue virus type 2, UniProt P29990); experiment: flavivirus cap methylation enzyme inhibition – biochemical, confirmation dose response, primary screen (AID 588689); type: functional
Genome polyprotein, sequence (P29990 2492-3391 limits assumed): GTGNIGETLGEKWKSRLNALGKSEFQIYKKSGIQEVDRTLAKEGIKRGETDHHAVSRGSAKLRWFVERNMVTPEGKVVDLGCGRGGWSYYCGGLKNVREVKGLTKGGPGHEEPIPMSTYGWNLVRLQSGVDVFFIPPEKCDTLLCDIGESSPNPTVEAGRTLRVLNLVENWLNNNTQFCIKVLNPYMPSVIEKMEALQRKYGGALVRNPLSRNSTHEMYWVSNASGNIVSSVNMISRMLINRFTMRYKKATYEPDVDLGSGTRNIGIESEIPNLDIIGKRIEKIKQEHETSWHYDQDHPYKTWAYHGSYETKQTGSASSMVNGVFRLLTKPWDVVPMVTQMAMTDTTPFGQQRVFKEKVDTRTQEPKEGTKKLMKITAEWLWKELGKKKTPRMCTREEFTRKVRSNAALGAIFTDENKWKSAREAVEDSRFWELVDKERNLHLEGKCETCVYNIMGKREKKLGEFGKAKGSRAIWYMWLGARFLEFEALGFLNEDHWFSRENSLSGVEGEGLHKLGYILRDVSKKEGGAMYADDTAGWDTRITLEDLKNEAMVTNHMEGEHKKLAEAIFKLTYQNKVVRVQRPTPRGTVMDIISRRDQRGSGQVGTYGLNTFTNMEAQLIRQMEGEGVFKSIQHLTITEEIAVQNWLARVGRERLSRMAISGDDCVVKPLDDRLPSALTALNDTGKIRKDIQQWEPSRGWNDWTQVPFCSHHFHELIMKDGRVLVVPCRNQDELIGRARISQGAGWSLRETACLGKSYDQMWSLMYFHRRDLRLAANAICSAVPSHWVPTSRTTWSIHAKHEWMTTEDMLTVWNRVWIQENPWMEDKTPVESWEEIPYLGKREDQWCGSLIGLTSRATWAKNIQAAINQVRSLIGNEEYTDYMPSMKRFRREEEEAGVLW

[20] = target: T3, Zinc finger protein mex-5 (Caenorhabditis elegans, UniProt Q9XUB2); experiment: potency of MEX-5 RNA-binding blockers – biochemical, C. elegans, fluorescence polarization, dose response (AID 1960)
T3 sequence (Q9XUB2 whole entry): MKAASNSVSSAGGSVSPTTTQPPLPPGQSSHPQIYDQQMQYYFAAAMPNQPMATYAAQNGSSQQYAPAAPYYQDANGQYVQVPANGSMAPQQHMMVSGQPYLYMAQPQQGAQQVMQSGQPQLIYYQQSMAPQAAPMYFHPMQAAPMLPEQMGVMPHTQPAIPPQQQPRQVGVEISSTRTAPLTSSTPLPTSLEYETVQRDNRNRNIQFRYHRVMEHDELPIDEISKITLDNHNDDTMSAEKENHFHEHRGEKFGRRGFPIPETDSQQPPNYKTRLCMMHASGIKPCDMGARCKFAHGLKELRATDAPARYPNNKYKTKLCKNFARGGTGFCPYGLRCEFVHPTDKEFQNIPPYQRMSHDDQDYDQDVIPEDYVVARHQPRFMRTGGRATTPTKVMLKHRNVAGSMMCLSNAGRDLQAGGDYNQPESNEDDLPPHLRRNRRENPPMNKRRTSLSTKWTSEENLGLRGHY

[21] = target: T4, RNA-binding protein pos-1 (Caenorhabditis elegans, UniProt G5EF15); experiment: disruptors of C. elegans POS-1 RNA interaction – biochemical, fluorescence polarization, dose response (AID 1964);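 also: purified POS-1 fused to maltose binding protein made in E. coli; potency of compounds blocking POS-1 binding to fluorescent RNA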
T4 sequence (G5EF15 whole entry): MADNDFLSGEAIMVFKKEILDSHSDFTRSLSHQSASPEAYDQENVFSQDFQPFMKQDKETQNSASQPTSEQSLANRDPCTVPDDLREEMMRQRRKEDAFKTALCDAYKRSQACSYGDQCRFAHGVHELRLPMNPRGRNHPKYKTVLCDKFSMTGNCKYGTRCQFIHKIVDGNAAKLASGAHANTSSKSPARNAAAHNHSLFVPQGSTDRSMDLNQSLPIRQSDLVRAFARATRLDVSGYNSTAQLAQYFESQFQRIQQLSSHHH

Mitogen-activated protein kinase 10, sequence (P53779 whole entry): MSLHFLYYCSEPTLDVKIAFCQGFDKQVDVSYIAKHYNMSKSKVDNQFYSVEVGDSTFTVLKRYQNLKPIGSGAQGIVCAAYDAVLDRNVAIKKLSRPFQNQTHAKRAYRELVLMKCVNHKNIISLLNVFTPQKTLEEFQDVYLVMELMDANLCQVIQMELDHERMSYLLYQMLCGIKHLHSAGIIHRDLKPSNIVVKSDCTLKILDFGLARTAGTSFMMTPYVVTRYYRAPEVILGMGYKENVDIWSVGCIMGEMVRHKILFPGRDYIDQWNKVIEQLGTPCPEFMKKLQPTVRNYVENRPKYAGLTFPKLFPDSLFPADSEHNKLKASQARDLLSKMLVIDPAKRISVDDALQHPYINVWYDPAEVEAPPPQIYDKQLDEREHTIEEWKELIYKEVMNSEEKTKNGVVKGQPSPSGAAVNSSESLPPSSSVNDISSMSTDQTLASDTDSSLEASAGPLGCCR

Compound: O=C(Cn1cnc2ccccc2c1=O)Nc1ccc(-c2nnc3n2CCCCC3)cc1
- IC50 [1]: 29.5 µM (not active)

Compound: CC(C)C1C(C#N)=C(N)Oc2[nH]nc(-c3ccc4ccccc4c3)c21 (stereo not given)
- IC50 [2]: 2.41 µM (active)

Compound: CCCCN(CC)CCCNC(=O)c1cc2c(=O)n(CC)c3ccccc3c2s1
- IC50 (Vero [3]): 22.7 µM (active)
- EC50 (H4): 11.7 µM (active)
- EC50 [4]: 13.6 µM (active)
- AC50 [5]: 21.6 µM (active)
- EC50 [6]: 73.6 µM (active)
- IC50 [7]: > 20 µM (inactive)
- CC50 (Vero [8]): 24.3 µM (active)

Compound: CC(=O)c1cccc(CN2CCN(C3CCCCC3)C(CCO)C2)c1 (stereo not given)
- IC50 [9]: > 83.3 µM (inactive)
- IC50 [10]: > 109 µM (inactive)

Compound: Cc1occc1-c1nnc(SCC(=O)N2CCN(c3ccccc3)CC2)n1C
- IC50 (Protein Tat): > 100 µM (active)

Compound: Cc1ccc(C)c(N2CCN(C(=O)Cc3ccc(-n4c(=O)[nH]c5ccsc5c4=O)cc3)CC2)c1
- IC50 [9]: > 83.2 µM (inactive)
- IC50 [10]: > 109 µM (inactive)

Compound: O=C1NC(=O)N(c2ccccc2)C(=O)/C1=C\C=C\c1ccccc1
- EC50 [11]: 15.1 µM (active)
- EC50 (H4): > 120 µM (not active)
- EC50 [4]: 8.73 µM (active)
- EC50 [6]: > 120 µM (not active)
- EC50 (BJ [12]): 2.79 µM (inconclusive)
- EC50 [13]: 4.66 µM (inconclusive)
- CC50 [14]: 13 µM (active)
- EC50 (BJ [15]): 4.12 µM (inconclusive)
- IC50 (Large T antigen): 95.6 µM (active)
- EC50 (BJ [16]): > 150 µM (inconclusive)

Compound: O=C(Nc1ccc(CN2CCOCC2)cc1)c1ccc(Cl)cc1
- EC50 [17]: > 12 µM (not active)
- EC50 (H4): 16.1 µM (active)
- EC50 [18]: 0.951 µM (active)
- EC50 [4]: 4.65 µM (active)
- EC50 [6]: < 0.1 µM (active)
- EC50 [19]: 0.685 µM (active)

Compound: COc1cc(C(c2c(C(=O)O)[nH]c3ccccc23)c2c(C(=O)O)[nH]c3ccccc23)ccc1OCc1ccccc1
- IC50 (Genome polyprotein): 16 µM (active)
- EC50 [20]: 24.5 µM (active)
- EC50 [21]: 47.7 µM (active)
- AC50 (cells): 7.4 µM (active)

Compound: CCN1CCN(CCCNC(=O)C2CCCN(c3nc4c(C)cc(C)cc4s3)C2)CC1 (stereo not given)
- IC50 (Vero [3]): 24.8 µM (active)
